Reference: US10583096B2, “Use of cannabinoids in the treatment of epilepsy” (GW Research Limited, priority 2016, dated 2020)

Columns and labels:
[1] = test system: subjects with SWS brain involvement and refractory epilepsy; assay: Expanded access compassionate use program of CBD in Sturge Weber syndrome: seizure frequency and quality of life; assay type: in vivo, human; conditions: for Week 14 (number of seizures): CBD target dose 15-25 mg/kg/day; for Decrease in seizure frequency (%): week 14 versus baseline
Procedure: “Percentage decrease in seizure frequency” is defined as the number of seizures at week 14 minus the number of seizures at baseline divided by the number of seizures at baseline multiplied by 100.
Four subjects with SWS brain involvement and refractory epilepsy were enrolled in an expanded access compassionate use program for CBD. These subjects were treated with a highly purified extract of cannabidiol (CBD) obtained from a cannabis plant. Frequency of seizures was recorded at each visit, as were reported quality of life changes, including mood, behaviour, and cognitive function.
Data were compared in the 56-day pre-treatment period, the 56-day period after starting maintenance dose (Week 14), and at most recent visit.
The participants in the study were taking at the time of entry into the study between one and four concomitant AEDs.
Patient 1 was taking leviteracetam alone. Patient 2 was taking leviteracetam, valproate, felbamate and clobazam. Patient 3 was taking valproate and topiramate. Patient 4 was taking oxycarbamazepine and lacosamide.
CBD was administered at a target dose of 15-25 mg/kg/day.
All patients entered a baseline period of 14 weeks when parents/caregivers kept prospective seizure diaries, noting all countable seizure types.
Laboratory testing for hematologic, liver, kidney function and concomitant AED levels was performed at baseline, and after every 4 weeks of CBD therapy.

[2] = test system: multiple species and models; conditions: previous studies in animals; cited from earlier work
[3] = test system: adult patients; conditions: 200 mg/day of pure CBD, four adult patients; cited from earlier work
[4] = test system: adult patients with secondary generalized epilepsy; conditions: of eight adult patients with secondary generalized epilepsy; cited from earlier work
[5] = test system: Dravet syndrome; conditions: treatment of Dravet syndrome, announced March 2016; cited from earlier work
[6] = test system: mice; conditions: after administration of pro-convulsant drugs or an electric current; cited from earlier work
[7] = test system: institutionalized adult patients; conditions: 200 mg/day of pure CBD, twelve institutionalized adult patients, open label; cited from earlier work
[8] = in vivo; cited from earlier work

Structure (SMILES): C=C(C)[C@@H]1CCC(C)=C[C@H]1c1c(O)cc(CCCCC)cc1O [CBD, Cannabidiol]
- Week 14 (number of seizures) ([1]; Patient 1, concomitant leviteracetam alone, baseline 67 seizures): 60 number of seizures
- Decrease in seizure frequency (%) ([1]; Patient 1, concomitant leviteracetam alone): 10%
- Week 14 (number of seizures) ([1]; Patient 2, concomitant leviteracetam, valproate, felbamate and clobazam, baseline 6 seizures): 1 number of seizures
- Decrease in seizure frequency (%) ([1]; Patient 2, concomitant leviteracetam, valproate, felbamate and clobazam): 83%
- Week 14 (number of seizures) ([1]; Patient 3, concomitant valproate and topiramate, baseline 10 seizures): 1 number of seizures
- Decrease in seizure frequency (%) ([1]; Patient 3, concomitant valproate and topiramate): 90%
- Week 14 (number of seizures) ([1]; Patient 4, concomitant oxycarbamazepine and lacosamide, baseline 6 seizures): 4 number of seizures
- Decrease in seizure frequency (%) ([1]; Patient 4, concomitant oxycarbamazepine and lacosamide): 33%
- effectiveness in the treatment of SWS ([1]; conclusion from the four patients): effective
- reported quality of life ([1]; patient 1): remained unchanged
- reported quality of life ([1]; three of the four patients (patients 2, 3 and 4)): improved quality of life
- cognitive function ([1]; three subjects (patients 2, 3 and 4)): improvements in cognitive function
- share of patients who benefited from a reduction in the number of seizures ([1]; treatment-resistant SWS patients, four subjects): three quarters
- mood and behaviour ([1]; two subjects (patient 2 and 3)): improvements in mood and behaviour
- anticonvulsant efficacy [2]: anticonvulsant efficacy in multiple species and models
- patients who became seizure free [3]: two of the four patients
- seizure frequency in the remainder of the patients [3]: unchanged
- number of patients with a marked reduction of seizures [4]: 4
- outcome of the Phase 3 study [5]: positive results
- prevention of seizures [6]: able to prevent seizures
- control of seizures [7]: ineffective

Structure (SMILES): CCCCCc1cc(O)c2c(c1)OC(C)(C)[C@@H]1CCC(C)=C[C@@H]21 [THC, Tetrahydrocannabinol]
- effect on convulsions [8]: pro-convulsant
